# Laboratory results as given in patent US8501205B2, “Insect repellent composition” (priority 2006, dated 2013).
# Marks after values point to notes of the source that are not given here.
# Columns and labels:
# host-seeking mosquitoes = experiment: Study A Guatemala field trial, human-landing catch on treated lower legs; format: in vivo, Psorophora varipes, Aedes Ochlerotatus taeniorhynchus
# Text: Study A—Guatemala Study. The following repellent formulations (% by weight) were used: (1) C15: repellent containing the amounts of ingredients described in Example 1—the PMD obtained from acid modification of Coryinbia citriodora oil, CAS: 42822-86-6, purchased from Chemian Technology Ltd under the trademark Citriodiol®; (2)115: repellent containing the amounts of ingredients described in Example 1—the PMD obtained from Coolact® 38D; (3) T20: containing 20 wt % PMD instead of 15%, obtained from Coolact® 38D; (4) positive control: 15% DEET (N,N-diethyl-meta-toluamide, CAS 134-62-3; Sigma-Aldrich Co.) in ethanol; (5) negative control: mixture of 20% mineral oil and ethanol.
# (§1) Study A and B, Both studies were controlled double blind, human-landing catch design. All solutions were placed in unmarked containers labeled by code. On any one night, human volunteers had both lower legs treated with either one of the PMD/LG candidate repellents or a positive or negative control at a rate of 0.002 ml/cm^2 between the ankle and the knee. Volunteers' leg length and circumference were measured to calculate surface area and the correct dose of treatment was measured using a micropipette, and applied using a latex glove to minimize absorption of material onto the hand of the volunteer. During the human-landing catches, the volunteers wore shorts to the knee, work boots, and a loose bug jacket (ProBuy) to ensure that blood-seeking mosquitoes had access only to their lower legs.
# (§2) The designated locations within the field sites were 10 m from each other and a minimum of 20 m from alternate sources of kairomones such as houses and livestock. As insect repellents act over a distance of less than a meter, and the maximum distance of host attraction of a single human to mosquitoes is 10 m,^29 the design eliminates any “relativity effect” where insects choose between two hosts simultaneously. Mosquitoes were collected from the lower legs of the volunteers once they had settled—without the need to wait for biting—by using a mouth aspirator, flashlight, and a collection vessel. Collection vessels were changed each hour to provide hourly measures of repellency. Umbrellas were also provided, to protect the volunteers from any rain showers that might wash away their repellent.
# (§3) All volunteers were experienced at conducting man-landing catches. A form outlining procedure was given to the volunteers to ensure that they had full understanding of the potential risks of a study of this kind. In addition, each was given chloroquine (Guatemala) or Mefloquine (Peru) prophylaxis in accordance with WHO guidelines.^30 Full ethical clearance was obtained from Universidad del Valle, Guatemala (Study A); and from London School of Hygiene and Tropical Medicine Ethics Board and Instituto Nacional de Salud, Peru (Study B).
# Study A. The three repellents and two controls were applied to the five volunteers at 1430 hrs, and man-landing catches were performed at the field site for one hour before and after sunset (1730-1930 hrs), when the evening mosquito biting is at its peak as shown by preliminary man-landing catches. The times chosen allowed an assessment of the protection afforded by the repellent over 5 hours while exposing volunteers to bites for only 2 hours. This helped minimize exposure and risk to the collectors. The study was a balanced 5×5 Latin-square design that required each volunteer to test each treatment five times throughout the study over a period of twenty-five nights. Every evening, each individual was allocated one of five treatments, and sat in one of five allocated positions. Consequently, the volunteers changed position every five days.
# Mosquitoes were maintained overnight and killed by cooling prior to identification the following morning. Data were normalized using natural log ([…]) and analyzed with General Linear Model (GLM) using Minitab 11.0 for Windows. […]
# An. darlingi = conditions: for 4 hours after application; biting pressure 75 mosquito landings per human-hour; cited from earlier work
# All mosquitoes = experiment: Study B Peru field trial, human-landing catch, all mosquitoes; format: in vivo, mosquitoes (86% Anopheles darlingi); conditions: for % P = percentage protection / AM = arithmetic mean mosquito landings/hour / WM = William's mean mosquito landings/hour: All mosquitoes
# Text: (§4) Study B—Peru Study. Repellent formulations (% by weight) were used: (1) “PMD+LG” containing about 16% PMD as indicated in Example 1—PMD obtained from Coolact® 38D; (2) positive control: 20% DEET (Sigma Aldridge) in ethanol (Sigma-Aldrich Co.); (3) negative control: 20% mineral oil (ExxonMobil Corporation) in ethanol.
# as §1, §2, §3
# (§5) Study B. The repellent and two controls were applied at 1600 hrs, and man-landing collections were performed at the field, between 1800 and 2200 hours, as this is the time of peak An. darlingi activity in the area (Chan, A. unpublished data). The times chosen allowed an assessment of the protection afforded by the repellent over to be made of relative protection of the samples for a period of 6 hours while exposing volunteers to bites for only 4 hours. This helped minimize exposure and risk to the collectors. The volunteers took a 15-minute break between 2000 hrs and 2015 hrs. The study was a 3×3 balanced Latin-square design performed using three volunteers over nine nights, with volunteers changing positions every third night. Due to unforeseen circumstances, one of the volunteers was replaced after 4 nights, and this was factored into the statistical analysis.
# (§6) Mosquitoes were maintained overnight and killed by cooling prior to identification the following morning. Data were normalized using natural log ([…]) and analyzed with General Linear Model (GLM) using Minitab 11.0 for Windows. Further testing of individual variables was performed using Kruskal Wallis, as data could not be sufficiently normalized to use one-way Analysis of Variance (ANOVA) due to low collection numbers on repellent-treated individuals.
# Anopheles darlingi = experiment: Study B Peru field trial, human-landing catch, Anopheles darlingi; format: in vivo
# Text: as §4, §1, §2, §3, §5, §6
# [1] = Mean of 4 and 5 hours post application
compound,measurement,setting,value
"CCN(CC)C(=O)c1cccc(C)c1 [15% DEET, N,N-diethyl-meta-toluamide]",% P = percentage protection,host-seeking mosquitoes; 4 hours post application,94.52%
same,WM = William's mean mosquito landings/hour,host-seeking mosquitoes; 4 hours post application,3.63 mosquito landings/hour
same,AM = arithmetic mean mosquito landings/hour,"host-seeking mosquitoes; 4 hours post application, 0.002 ml/cm^2 on lower legs",6.33 mosquito landings/hour
same,% P = percentage protection,host-seeking mosquitoes; 5 hours post application,87.85%
same,AM = arithmetic mean mosquito landings/hour,host-seeking mosquitoes; 5 hours post application,12.21 mosquito landings/hour
same,WM = William's mean mosquito landings/hour,host-seeking mosquitoes; 5 hours post application,4.87 mosquito landings/hour
same,% P = percentage protection,host-seeking mosquitoes; [1],91.42%
same,AM = arithmetic mean mosquito landings/hour,host-seeking mosquitoes; [1],9.27 mosquito landings/hour
same,WM = William's mean mosquito landings/hour,host-seeking mosquitoes; [1],3.60^c mosquito landings/hour
same,protection from host-seeking mosquitoes,"host-seeking mosquitoes; up to five hours after application, biting pressure 108 mosquitoes per man hour",91%
same,protection,An. darlingi,85%
"CCN(CC)C(=O)c1cccc(C)c1 [20% DEET, N,N-diethyl-meta-toluamide]",average protection,All mosquitoes; 6 hours after application / over the duration of the trial,62%
same,% P = percentage protection,All mosquitoes; 3 hours post application,65.77%
same,AM = arithmetic mean mosquito landings/hour,All mosquitoes; 3 hours post application,15.22 mosquito landings/hour
same,WM = William's mean mosquito landings/hour,All mosquitoes; 3 hours post application,10.59 mosquito landings/hour
same,% P = percentage protection,All mosquitoes; 4 hours post application,68.12%
same,AM = arithmetic mean mosquito landings/hour,All mosquitoes; 4 hours post application,19.78 mosquito landings/hour
same,WM = William's mean mosquito landings/hour,All mosquitoes; 4 hours post application,16.12 mosquito landings/hour
same,% P = percentage protection,All mosquitoes; 5 hours post application,63.80%
same,AM = arithmetic mean mosquito landings/hour,All mosquitoes; 5 hours post application,13.89 mosquito landings/hour
same,WM = William's mean mosquito landings/hour,All mosquitoes; 5 hours post application,11.68 mosquito landings/hour
same,% P = percentage protection,All mosquitoes; 6 hours post application,52.08%
same,AM = arithmetic mean mosquito landings/hour,All mosquitoes; 6 hours post application,18.44 mosquito landings/hour
same,WM = William's mean mosquito landings/hour,All mosquitoes; 6 hours post application,15.28 mosquito landings/hour
same,% P = percentage protection,All mosquitoes; Mean of 3-6 hours,63.63%
same,AM = arithmetic mean mosquito landings/hour,All mosquitoes; Mean of 3-6 hours,16.83 mosquito landings/hour
same,WM = William's mean mosquito landings/hour,All mosquitoes; Mean of 3-6 hours,13.30^c mosquito landings/hour
same,% P = percentage protection,Anopheles darlingi; 3 hours post application,56.43%
same,AM = arithmetic mean mosquito landings/hour,Anopheles darlingi; 3 hours post application,13.56 mosquito landings/hour
same,WM = William's mean mosquito landings/hour,Anopheles darlingi; 3 hours post application,9.59 mosquito landings/hour
same,% P = percentage protection,Anopheles darlingi; 4 hours post application,66.53%
same,AM = arithmetic mean mosquito landings/hour,Anopheles darlingi; 4 hours post application,18.33 mosquito landings/hour
same,WM = William's mean mosquito landings/hour,Anopheles darlingi; 4 hours post application,14.96 mosquito landings/hour
same,% P = percentage protection,Anopheles darlingi; 5 hours post application,62.21%
same,AM = arithmetic mean mosquito landings/hour,Anopheles darlingi; 5 hours post application,12.89 mosquito landings/hour
same,WM = William's mean mosquito landings/hour,Anopheles darlingi; 5 hours post application,10.59 mosquito landings/hour
same,% P = percentage protection,Anopheles darlingi; 6 hours post application,51.41%
same,AM = arithmetic mean mosquito landings/hour,Anopheles darlingi; 6 hours post application,17.22 mosquito landings/hour
same,WM = William's mean mosquito landings/hour,Anopheles darlingi; 6 hours post application,13.59 mosquito landings/hour
same,% P = percentage protection,Anopheles darlingi; Mean of 3-6 hours,61.40%
same,AM = arithmetic mean mosquito landings/hour,Anopheles darlingi; Mean of 3-6 hours,15.00 mosquito landings/hour
same,WM = William's mean mosquito landings/hour,Anopheles darlingi; Mean of 3-6 hours,12.07^c mosquito landings/hour
